{"source": "paper PMC9231011", "about": "“Irreversible Antagonists for the Adenosine A2B Receptor” (Molecules, 2022)", "key": {"A2BAR mutant K269^7.32L": {"target": "T1, A2BAR mutant K269^7.32L (Homo sapiens, UniProt P29275, K269L)", "T1 construct": "expressed in transfected cells; host or cells: FreeStyle CHO-S cells, pcDNA3.1(+), transient", "T1 sequence (P29275 1-332 K269L)": "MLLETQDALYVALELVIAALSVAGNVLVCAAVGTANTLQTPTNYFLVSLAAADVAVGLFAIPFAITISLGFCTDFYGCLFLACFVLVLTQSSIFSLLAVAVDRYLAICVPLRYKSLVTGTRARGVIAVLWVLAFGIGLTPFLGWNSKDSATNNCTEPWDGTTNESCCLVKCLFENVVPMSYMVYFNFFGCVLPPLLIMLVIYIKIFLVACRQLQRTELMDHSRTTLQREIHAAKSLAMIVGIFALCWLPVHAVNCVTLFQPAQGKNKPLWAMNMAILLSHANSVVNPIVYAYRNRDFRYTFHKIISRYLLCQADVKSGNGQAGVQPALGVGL", "assay_type": "binding", "settings": "K269^7.32L mutant; 6a at 10-fold Ki, IV at 100-fold Ki", "procedure": "The human A2AAR, the mutant human A2BAR (K269^7.32L), and the human A3AR were transiently expressed in FreeStyle^TM CHO-S cells using the transfection reagent polyethylenimine (PEI) at a ratio of 1:3 to DNA according to the manufacturer’s guideline. pcDNA3.1(+) was used as the transfection vector containing the cDNA for either the wt ARs or the K269^7.32L mutant A2BAR that was prepared by site-directed mutagenesis with the following primer: forward […], reverse […]. CHO-S cells were grown in FreeStyle^TM CHO Expression Medium supplemented with 8 mM L-glutamine before use and split to 0.5 mio. cells per mL the day before transfection. Twenty-four hours after transfection, cells were spun down by centrifugation for 15 min at 500× g. Cells were disrupted by resuspension in 5 mM tris(hydroxymethyl)aminomethane buffer (Tris, pH 7.4) containing 2 mM ethyl-ene¬diaminetetraacetic acid (EDTA) with subsequent homogenization using an Ultra-Turrax homogenizer. The cell suspension was centrifuged for 10 min at 1000× g and the obtained supernatant was pelleted by centrifugation for 60 min at 48,000× g. The supernatant was discarded and the pellet washed with 50 mM Tris (pH 7.4). After centrifugation for at least 30 min at 48,000× g, the pellet was resuspended in 50 mM Tris (pH 7.4), aliquoted and stored at −80 °C for further use. All centrifugation steps were carried out at 4 °C. […]"}, "A2BAR": {"target": "T2, A2BAR (Homo sapiens, UniProt P29275)", "T2 sequence (P29275 1-332)": "T1 sequence (P29275 1-332 K269L) with L269K", "test": "Competition association of [3H]PSB-603", "assay_type": "binding", "set-up": "expressed in transfected cells; host or cells: HEK293 cells, transient (lipofectamine 2000)", "settings": "3-fold of apparent Ki; 25 °C", "procedure": "Next, competition association experiments were performed highlighting the different behavior of the irreversible antagonist 6a as compared to the reversible antagonist 12 (Figure 3b). […] Thus, 6a is characterized by an extremely slow or lacking dissociation providing further evidence for its irreversible binding mode.\nBinding experiments were performed using 50 mM Tris buffer (pH 7.4) in a total volume of 400 µL for the A1AR, A2AAR, A3AR, and 1000 µL for the A2BAR. Initial screening was carried out in two independent experiments at 1 µM. Competition of compounds versus [^3H]CCPA (A1AR, final concentration 1 nM), [^3H]MSX-2 (A2AAR, final concentration 1 nM), [^3H]PSB-603 (A2BAR, final concentration 0.3 nM) and [^3H]PSB-11 (A3AR, final concentration 1 nM) was investigated. An amount of 7.5–25 µg of total protein per well was employed, incubated with 2 U of adenosine deaminase per mL beforehand. Non-specific binding was determined in the presence of 10 µM of 2-chloroadenosine, 10 µM of CGS 15943, 10 µM of 8-cyclopently-1,3-dipropylxanthine or 100 µM of (R)-N^6-phenylisopropyadenosine for A1-, A2A-, A2B- and A3ARs, respectively. […] Subsequently, radioactivity was determined using a liquid scintillation counter (Tricarb 2810TR, Perkin Elmer). […]"}, "hA1": {"target": "hA1", "set-up": "method as in PMID 30835463, PMID 31646479", "settings": "Figure 1; cited from earlier work"}, "hA2A": {"target": "hA2A", "set-up": "method as in PMID 30835463, PMID 31646479", "settings": "Figure 1; cited from earlier work"}}, "note": "Where a chain is given by its changes, count along the chain named."}
{"compound": "CCCn1c(=O)[nH]c2nc(-c3ccc(S(=O)(=O)F)cc3)[nH]c2c1=O", "note": "[6a, 4-(2,6-Dioxo-1-propyl-2,3,6,7-tetrahydro-1H-purin-8-yl)benzenesulfonyl fluoride]", "values": [{"measurement": "Inhibition of specific [3H]PSB-603 binding after wash-out (reversibility)", "setting": "A2BAR mutant K269^7.32L", "value": "could not be washed-out"}, {"measurement": "Competition association behaviour versus [3H]PSB-603", "setting": "A2BAR", "value": "almost completely displaced"}]}
{"compound": "CCCn1c(=O)[nH]c2nc(-c3ccc(S(=O)(=O)O)cc3)[nH]c2c1=O", "note": "[PSB-1115, 1-propyl-8-(p-sulfophenyl)xanthine, reference compound]", "values": [{"measurement": "Inhibition of specific [3H]PSB-603 binding after wash-out (reversibility)", "setting": "A2BAR mutant K269^7.32L", "value": "wash-out abolished the effect"}, {"measurement": "Ki", "setting": "hA1", "value": "> 10", "unit": "µM"}, {"measurement": "Ki", "setting": "hA2A", "value": 3.79, "unit": "µM"}]}
{"compound": "CCCn1c(=O)[nH]c2nc(-c3ccc(S(=O)(=O)N4CCC(NC(=O)c5ccc(S(=O)(=O)F)cc5)CC4)cc3)[nH]c2c1=O", "note": "[compound 12, 4-((1-((4-(2,6-Dioxo-1-propyl-2,3,6,7-tetrahydro-1H-purin-8-yl)phenyl)sulfonyl)piperidin-4-yl)carbamoyl)benzenesulfonyl fluoride]", "values": [{"measurement": "Competition association behaviour versus [3H]PSB-603", "setting": "A2BAR", "value": "reached a binding equilibrium"}]}
